According to paper PMC5352194, “Toward the development of a novel non-RGD cyclic peptide drug conjugate for treatment of human metastatic melanoma” (Oncotarget, 2016):

Key:
[1] = tested on: WM-266-4 human metastatic melanoma cells; assay: Cell survival test (XTT assay), WM-266-4; format: cell-based; conditions: WM-266-4 cells, 10μM, 48 hours, three repeats in quadruplicates
Protocol: (§1) The cytotoxicity of the compounds was determined by measuring the mitochondrial enzyme activity, using a commercial XTT assay kit (#20-30-100, Biological Industries, Beit-Haemek, Israel) according to the manufacturer protocol using 2×10^3 cells/well of a 96–well plate. The cells were cultured for 24 hours in growth medium followed by additional 48 hours with growth medium supplemented with different concentrations of the tested substances. The absorbance of the XTT reagent was measured with a TECAN Infinite M200 ELISA reader. The absorbencies were normalized to the absorbance of cells grown in medium and solvent. All the tests were repeated three times in quadruplicates.

[2] = tested on: non-malignant HEK293 cells; assay: Cell survival test (XTT assay), HEK293; format: cell-based, human; conditions: 48 hours, XTT (experiment repeated as for WM-266-4, 10μM), three repeats in quadruplicates
Protocol: as §1

[3] = tested on: WM-266-4 cells; assay: Confocal analysis of intracellular localization of CPT in live cells; format: cell-based, human; conditions: live WM-266-4 cells, 10 μM, 1 h, CPT fluorescence
Text: Fluorescent images of ALOS4-FITC were acquired by Photometrics CoolSNAP HQ2 camera mounted on an Olympus iX81 fluorescent microscope. For confocal microscopy analysis the cells were transfected with a plasmid expressing GFP-fused histone H1E (pH1E-GFP) using Xfect polymer (ST0152, Clontech Laboratories, CA, USA) and were stained with CytoPainter Lysosomal Staining Kit - Red Fluorescence (ab112137, Abcam, Cambridge, MA, USA). Images were collected with a Zeiss LSM700 confocal microscope.

[4] = Chemo-stability (lactone ring opening), LC-MS; format: physicochemical; conditions: chemical stability, 0.1 mM in PBS pH 7.4, 37°C, 5 h incubation, samples injected twice
Protocol: Electron spray mass spectra (ESI-MS) were obtained using an Autoflex III smart-beam (MALDI, Bruker), Q-TOF micro (Waters) or an LCQ Fleet™ ion trap mass spectrometer (Finnigan/Thermo). HPLC/LC-MS analyses were made using Agilent infinity 1260 connected to Agilent quadruple LC-MS 6120 series equipped with ZORBAX SB-C18, 50 × 2.1 mm, 1.8 μm column. In all cases the eluent solvents were A (0.1% TFA in H2O) and B (0.1% TFA in ACN) and the elution gradient profile was: 100% A for first 4 min, 8 min (from min 4 to min 12) during which it reached 100% B, 4 min (from min 12 to min 16) of 100% B, 2 min (from min 16 to min 18) during which it returned back to A, and 2 min (from min 18 to min 20) of 100% A. The UV detection was at 254 nm. Column temperature was kept at 50°C. The flow rate was of 0.4 ml/min. The MS fragmentor was tuned on 100V on positive or negative mode.
0.1 mM CPT and ALOS4-CPT were incubated in acetate buffer at pH 4.5 and in PBS at pH 7.4 at 37°C. During the incubation period (24h - 144h), aliquots were removed at different time intervals, filtered and analyzed by LC-MS.

[5] = tested on: γH2A.X in HEK293 cells; assay: Western blot, γH2A.X (DSBs) in HEK293 cells; format: cell-based, human; conditions: 3 hours
Protocol: (§2) The cells were scraped and washed with PBS buffer. Cell lysates were prepared by sonication in 1 X SDS sample buffer supplemented with protease inhibitor cocktail (MBS539134, Millipore) and boiling for 10 min. The proteins were separated by SDS-PAGE and transferred to nitrocellulose membranes. The following antibodies were used for western blotting: active caspase 3 (C8487, Sigma), γH2AX (05-636, Millipore) and histone H3 (05-928, Millipore). The band intensities in a representative experiment were quantified by the ImageJ program.

[6] = tested on: active caspase 3 in HEK293 cells; assay: Western blot, active caspase 3 in HEK293 cells; format: cell-based, human
Protocol: as §2

| Compound | Cell survival, % of the control cells [1] [%] | Cell survival, % of the control cells [2] [%] | Intracellular localization of CPT [3] | CPT that underwent lactone ring opening to carboxylate [4] [%] | Increase in the levels of γH2A.X [5] [fold] | Increase in the levels of active caspase 3 ([6]; 3 hours) [fold] | Increase in the levels of active caspase 3 ([6]; 24 hours) |
| --- | --- | --- | --- | --- | --- | --- | --- |
| CN(C)CCN1C(=O)c2cccc3cc(N)cc(c23)C1=O [AM, Amonafide] | 48 | 27 | – | – | – | – | – |
| COc1cc([C@@H]2c3[nH]c4ccccc4c3C[C@H]3COC(=O)N32)cc(OC)c1O [AZA, Azatoxin] | 68 | 44 | – | – | – | – | – |
| CC[C@@]1(O)C(=O)OCc2c1cc1n(c2=O)Cc2cc3ccccc3nc2-1 [CPT, Camptothecin] | 65 | 16 | accumulation of CPT inside the nucleus and to some less degree in the lysosome | ~40 | ~2 | ~2 | more than 5 fold |
